Measurements: patent publication US20250296971A1, “GASTRIC INHIBITORY PEPTIDE RECEPTOR LIGANDS” (priority 2021, published 2025)
Where two headings read alike, the source gives them in different places. *1 amine or outer side, *2 acyl side, *3 side chain or, on linkers, in order; H or OH if unused. Where a SMILES comes first, the peptide text is derived from it. Bridges are numbered along the chain shown (N, C = ends). Side-chain parts run from the residue outwards. [ ]: non-standard residue; d: D form. The star is where a group is joined. NH(1-deoxy-D-glucityl) = OC[C@@H](O)[C@@H](O)[C@H](O)[C@@H](O)CN*; X21 = O=C(CCP(=O)(O)CN1CCN(CP(=O)(O)CO)CCN(CP(=O)(O)CO)CC1)*; DOTA = O=C(O)CN1CCN(CC(=O)O)CCN(CC(=O)*)CCN(CC(=O)O)CC1; X9 = O=C(O)CN1CCN(CC(=O)O)CCN([C@H](CCC(=O)*)C(=O)O)CC1; Trp(5-Cl) = N[C@@H](Cc1c[nH]c2ccc(Cl)cc12)C(=O)O; Pyridine(2,6-diCH2) = c1cc(C[*:1])nc(C[*:2])c1; Pro(4R-NH2) = N[C@H]1CN[C@H](C(=O)O)C1; Glutaryl = O=C(CCCC(=O)[*:2])[*:1]; Hyp = O=C(O)[C@@H]1C[C@@H](O)CN1; X1 = O=C(CN1CCC(N[*:1])CC1)[*:2]; X30 = NCCNCC(CNCCN)C(=O)*; hSer = N[C@@H](CCO)C(=O)O; Api = NC1(C(=O)O)CCNCC1; Thp = NC1(C(=O)O)CCOCC1

Target: T1, GIPR (CHO-K1-hGIPR cells) (Homo sapiens, UniProt P48546)
T1 construct: host or cells: CHO-K1
T1 sequence (P48546 22-466): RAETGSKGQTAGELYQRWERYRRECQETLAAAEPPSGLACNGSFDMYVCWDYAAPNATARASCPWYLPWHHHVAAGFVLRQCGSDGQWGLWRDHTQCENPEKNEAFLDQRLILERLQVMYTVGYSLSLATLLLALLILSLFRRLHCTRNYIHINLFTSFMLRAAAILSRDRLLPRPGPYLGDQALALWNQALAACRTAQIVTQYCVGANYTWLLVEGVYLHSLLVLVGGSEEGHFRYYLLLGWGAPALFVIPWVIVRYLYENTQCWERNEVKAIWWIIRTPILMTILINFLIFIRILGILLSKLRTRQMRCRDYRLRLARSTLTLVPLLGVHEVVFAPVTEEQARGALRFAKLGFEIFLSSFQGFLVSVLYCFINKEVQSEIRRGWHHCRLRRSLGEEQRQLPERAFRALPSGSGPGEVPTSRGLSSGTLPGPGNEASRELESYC
Test: FACS binding assay
Conditions: competition with 20 nM GIP-057, 4° C., 1 hour
Description: In order to determine binding of compounds according to the present invention to GIPR-expressing cells, a FACS binding assay was established.
CHO-K1-hGIPR cells (GenScript Biotech, #M00486) were cultured in Ham's F12 medium (Sigma-Aldrich, #N4888) including 10% fetal calf serum (FCS), 2 mM L-glutamine, 100 U/mL penicillin, 100 μg/mL streptomycin, 200 μg/mL Zeocin and 100 μg/mL HygromycinB. Cells were detached with Accutase (Biolegend, #BLD-423201) and washed in FACS buffer (PBS including 1% FCS). Cells were diluted in FACS buffer to a final concentration of 500.000 cells per mL. 200 μL of the cell suspension were transferred to a u-shaped non-binding 96-well plate (Greiner) and cells were washed in ice-cold FACS buffer.
Cells were washed twice in FACS buffer. An additional incubation step with 1 μg/mL APC-Streptavidin (Miltenyi; #130-106-791) in 50 μL FACS buffer for 30 min on ice was performed followed by two washes with FACS buffer.
Cells were analyzed in an Attune NxT flow cytometer. Median fluorescence intensities (MFI) of the APC/Cy5-channel were calculated by Attune NxT software. MFI values were plotted against peptide concentration and four parameter logistic (4PL) curve fitting and EC50/pEC50 or IC50/pIC50 calculations were performed using ActivityBase software.

[1] = read-out: pIC50 Category (converted)

SMILES | IC50 [1] [nM] | IC50 (pIC50 Category) [nM]
CC[C@H](C)[C@@H]1NC(=O)[C@H](CC(C)C)NC(=O)C2(CCN(C(=O)CC[C@H](C(=O)O)N3CCN(CC(=O)O)CCN(CC(=O)O)CC3)CC2)NC(=O)[C@@H](NC(=O)[C@@H](CC(C)C)NC(=O)[C@H](CCC(=O)O)NC(=O)[C@@H]2C[C@@H](N)CN2C(=O)[C@H](Cc2c[nH]c3ccc(Cl)cc23)NC(=O)[C@H](Cc2c[nH]c3ccccc23)NC(=O)[C@H](CC(=O)O)NC(=O)CCCC(=O)NC[C@H](O)[C@@H](O)[C@H](O)[C@H](O)CO)CSCc2cccc(n2)CSC[C@@H](C(=O)NC2CCN(CC(=O)N[C@H](CCC(=O)NC[C@H](O)[C@@H](O)[C@H](O)[C@H](O)CO)C(N)=O)CC2)NC1=O [GIP-028, AGLU-Glutar-Asp-Trp-5Clw-Tap-Glu-leu-[Cys(2Lut)-Apc(NODAGA)-Leu-Ile-Cys]-APAc-glu(AGLU)-NH2] ({NH(1-deoxy-D-glucityl)-Glutaryl}-DW[Trp(5-Cl)][Pro(4R-NH2)]E[dL]C[Api](X9)LIC[X1][dE](NH(1-deoxy-D-glucityl))-NH2; linker 7-11 via Pyridine(2,6-diCH2)) | < 10 | 
CC[C@H](C)[C@@H]1NC(=O)[C@H](CC(C)C)NC(=O)C2(CCN(C(=O)CCP(=O)(O)CN3CCN(CP(=O)(O)CO)CCN(CP(=O)(O)CO)CC3)CC2)NC(=O)[C@@H](NC(=O)[C@@H](CC(C)C)NC(=O)[C@H](CCC(=O)O)NC(=O)[C@@H]2C[C@@H](N)CN2C(=O)[C@H](Cc2c[nH]c3ccc(Cl)cc23)NC(=O)[C@H](Cc2c[nH]c3ccccc23)NC(=O)[C@H](CC(=O)O)NC(=O)CCCC(=O)NC[C@H](O)[C@@H](O)[C@H](O)[C@H](O)CO)CSCc2cccc(n2)CSC[C@@H](C(=O)NC2CCN(CC(=O)N[C@H](CCC(=O)NC[C@H](O)[C@@H](O)[C@H](O)[C@H](O)CO)C(N)=O)CC2)NC1=O [GIP-029, AGLU-Glutar-Asp-Trp-5Clw-Tap-Glu-leu-[Cys(2Lut)-Apc(NOPO)-Leu-Ile-Cys]-APAc-glu(AGLU)-NH2] ({NH(1-deoxy-D-glucityl)-Glutaryl}-DW[Trp(5-Cl)][Pro(4R-NH2)]E[dL]C[Api](X21)LIC[X1][dE](NH(1-deoxy-D-glucityl))-NH2; linker 7-11 via Pyridine(2,6-diCH2)) |  | < 10
CC[C@H](C)[C@@H]1NC(=O)[C@H](CC(C)C)NC(=O)C2(CCN(C(=O)C(CNCCN)CNCCN)CC2)NC(=O)[C@@H](NC(=O)[C@@H](CC(C)C)NC(=O)[C@H](CCC(=O)O)NC(=O)[C@@H]2C[C@@H](N)CN2C(=O)[C@H](Cc2c[nH]c3ccc(Cl)cc23)NC(=O)[C@H](Cc2c[nH]c3ccccc23)NC(=O)[C@H](CC(=O)O)NC(=O)CCCC(=O)NC[C@H](O)[C@@H](O)[C@H](O)[C@H](O)CO)CSCc2cccc(n2)CSC[C@@H](C(=O)NC2CCN(CC(=O)N[C@H](CCC(=O)NC[C@H](O)[C@@H](O)[C@H](O)[C@H](O)CO)C(N)=O)CC2)NC1=O [GIP-030, AGLU-Glutar-Asp-Trp-5Clw-Tap-Glu-leu-[Cys(2Lut)-Apc(N4Ac)-Leu-Ile-Cys]-APAc-glu(AGLU)-NH2] ({NH(1-deoxy-D-glucityl)-Glutaryl}-DW[Trp(5-Cl)][Pro(4R-NH2)]E[dL]C[Api](X30)LIC[X1][dE](NH(1-deoxy-D-glucityl))-NH2; linker 7-11 via Pyridine(2,6-diCH2)) | < 10 | 
CC[C@H](C)[C@@H]1NC(=O)[C@H](CC(C)C)NC(=O)C2(CCN(C(=O)CNC(=O)CC[C@H](C(=O)O)N3CCN(CC(=O)O)CCN(CC(=O)O)CC3)CC2)NC(=O)[C@@H](NC(=O)[C@@H](CC(C)C)NC(=O)[C@H](CCC(=O)O)NC(=O)[C@@H]2C[C@@H](N)CN2C(=O)[C@H](Cc2c[nH]c3ccc(Cl)cc23)NC(=O)[C@H](Cc2c[nH]c3ccccc23)NC(=O)[C@H](CC(=O)O)NC(=O)CCCC(=O)NC[C@H](O)[C@@H](O)[C@H](O)[C@H](O)CO)CSCc2cccc(n2)CSC[C@@H](C(=O)NC2CCN(CC(=O)N[C@H](CCC(=O)NC[C@H](O)[C@@H](O)[C@H](O)[C@H](O)CO)C(N)=O)CC2)NC1=O [GIP-031, AGLU-Glutar-Asp-Trp-5Clw-Tap-Glu-leu-[Cys(2Lut)-Apc(NODAGA-Gly)-Leu-Ile-Cys]-APAc-glu(AGLU)-NH2] ({NH(1-deoxy-D-glucityl)-Glutaryl}-DW[Trp(5-Cl)][Pro(4R-NH2)]E[dL]C[Api]([Gly-X9])LIC[X1][dE](NH(1-deoxy-D-glucityl))-NH2; linker 7-11 via Pyridine(2,6-diCH2)) | < 10 | 
CC[C@H](C)[C@@H]1NC(=O)[C@H](CC(C)C)NC(=O)C2(CCN(C(=O)CN3CCN(CC(=O)O)CCN(CC(=O)O)CCN(CC(=O)O)CC3)CC2)NC(=O)[C@@H](NC(=O)[C@@H](CC(C)C)NC(=O)[C@H](CCC(=O)O)NC(=O)[C@@H]2C[C@@H](N)CN2C(=O)[C@H](Cc2c[nH]c3ccc(Cl)cc23)NC(=O)[C@H](Cc2c[nH]c3ccccc23)NC(=O)[C@H](CC(=O)O)NC(=O)CN2CCC(NC(=O)CCCC(=O)NC[C@H](O)[C@@H](O)[C@H](O)[C@H](O)CO)CC2)CSCc2cccc(n2)CSC[C@@H](C(=O)N[C@H](CCC(=O)NC[C@H](O)[C@@H](O)[C@H](O)[C@H](O)CO)C(N)=O)NC1=O [GIP-033, AGLU-Glutar-APAc-Asp-Trp-5Clw-Hyp-Glu-leu-[Cys(2Lut)-Apc(DOTA)-Leu-Ile-Cys]-glu(AGLU)-NH2] ({NH(1-deoxy-D-glucityl)-Glutaryl}-[X1]DW[Trp(5-Cl)][Pro(4R-NH2)]E[dL]C[Api](DOTA)LIC[dE](NH(1-deoxy-D-glucityl))-NH2; linker 8-12 via Pyridine(2,6-diCH2)) | < 10 | 
CC[C@H](C)[C@@H]1NC(=O)[C@H](CC(C)C)NC(=O)C2(CCN(C(=O)CN3CCN(CC(=O)O)CCN(CC(=O)O)CCN(CC(=O)O)CC3)CC2)NC(=O)[C@@H](NC(=O)[C@@H](CC(C)C)NC(=O)[C@H](CCC(=O)O)NC(=O)[C@@H]2C[C@@H](N)CN2C(=O)[C@H](Cc2c[nH]c3ccc(Cl)cc23)NC(=O)[C@H](Cc2c[nH]c3ccccc23)NC(=O)[C@H](CCO)NC(=O)CCCC(=O)NC[C@H](O)[C@@H](O)[C@H](O)[C@H](O)CO)CSCc2cccc(n2)CSC[C@@H](C(=O)NC2CCN(CC(=O)N[C@H](CCC(=O)NC[C@H](O)[C@@H](O)[C@H](O)[C@H](O)CO)C(N)=O)CC2)NC1=O [GIP-034, AGLU-Glutar-Hse-Trp-5Clw-Tap-Glu-leu-[Cys(2Lut)-Apc(DOTA)-Leu-Ile-Cys]-APAc-glu(AGLU)-NH2] ({NH(1-deoxy-D-glucityl)-Glutaryl}-[hSer]W[Trp(5-Cl)][Pro(4R-NH2)]E[dL]C[Api](DOTA)LIC[X1][dE](NH(1-deoxy-D-glucityl))-NH2; linker 7-11 via Pyridine(2,6-diCH2)) | < 10 | 
CC[C@H](C)[C@@H]1NC(=O)[C@H](CC(C)C)NC(=O)C2(CCN(C(=O)CN3CCN(CC(=O)O)CCN(CC(=O)O)CCN(CC(=O)O)CC3)CC2)NC(=O)[C@@H](NC(=O)[C@H](CC(C)C)NC(=O)[C@H](CCC(=O)O)NC(=O)[C@@H]2C[C@@H](N)CN2C(=O)[C@H](Cc2c[nH]c3ccc(Cl)cc23)NC(=O)[C@H](Cc2c[nH]c3ccccc23)NC(=O)[C@H](CC(=O)O)NC(=O)CCCC(=O)NC[C@H](O)[C@@H](O)[C@H](O)[C@H](O)CO)CSCc2cccc(n2)CSC[C@@H](C(=O)NC2CCN(CC(=O)N[C@H](CCC(=O)NC[C@H](O)[C@@H](O)[C@H](O)[C@H](O)CO)C(N)=O)CC2)NC1=O [GIP-035, AGLU-Glutar-Asp-Trp-5Clw-Tap-Glu-Leu-[Cys(2Lut)-Apc(DOTA)-Leu-Ile-Cys]-APAc-glu(AGLU)-NH2] ({NH(1-deoxy-D-glucityl)-Glutaryl}-DW[Trp(5-Cl)][Pro(4R-NH2)]ELC[Api](DOTA)LIC[X1][dE](NH(1-deoxy-D-glucityl))-NH2; linker 7-11 via Pyridine(2,6-diCH2)) | < 10 | 
CC[C@H](C)[C@@H]1NC(=O)[C@H](CC(C)C)NC(=O)C2(CCOCC2)NC(=O)[C@@H](NC(=O)[C@@H](CC(C)C)NC(=O)[C@H](CCC(=O)O)NC(=O)[C@@H]2C[C@@H](O)CN2C(=O)[C@H](Cc2c[nH]c3ccc(Cl)cc23)NC(=O)[C@H](Cc2c[nH]c3ccccc23)NC(=O)[C@H](CC(=O)O)NC(=O)[C@@H](CCC(=O)NC[C@H](O)[C@@H](O)[C@H](O)[C@H](O)CO)NC(=O)CN2CCN(CC(=O)O)CCN(CC(=O)O)CCN(CC(=O)O)CC2)CSCc2cccc(n2)CSC[C@@H](C(=O)NC2CCN(CC(=O)N[C@H](CCC(=O)NC[C@H](O)[C@@H](O)[C@H](O)[C@H](O)CO)C(N)=O)CC2)NC1=O [GIP-036, DOTA-glu(AGLU)-Asp-Trp-5Clw-Hyp-Glu-leu-[Cys(2Lut)-Thp-Leu-Ile-Cys]-APAc-glu(AGLU)-NH2] ({DOTA}-[dE](NH(1-deoxy-D-glucityl))DW[Trp(5-Cl)][Hyp]E[dL]C[Thp]LIC[X1][dE](NH(1-deoxy-D-glucityl))-NH2; linker 8-12 via Pyridine(2,6-diCH2)) | < 10 | 
